Measurements taken from patent publication US9402875B2, “Amidated dopamine neuron stimulating peptide restoration of mitochondrial activity” (University of Kentucky Research Foundation, priority 2006, dated 2016).
Ends that are not written are not given here.

Key:
MN9D cells [1] = assay: TUNEL staining, mitochondrial toxins; type: cell-based
Description: (§1) MN9D cells and B65 cells were cultured in Dulbecco's Modified Eagle's Medium (DMEM; 11995 (containing pyridoxol HCl); Sigma, St. Louis, Mo.) supplemented with 10% fetal bovine serum (HyClone, Logan, Utah), 50 U/mL penicillin and streptomycin. For each assay the cells were treated with mitochondrial-specific environmental toxins, i.e., MPP+, rotenone, and/or TaClo, and with or without DNSP-11. After incubation with the toxins, the cells were plated on 24-well poly-D-lysine plates (50,000 cells/well) for TUNEL assay (as described below) or 100,000 cell/well for caspase-3 assay in DMEM medium with 1% (v/v) penicillin-streptomycin only (as described below).
Terminal deoxynucleotidyl transferase mediated X-dUTP nicked end DNA labeling of cells (TUNEL staining) was used to assess cells undergoing apoptosis. […] The biotinylated nucleotides are detected by using streptavidin-horseradish peroxidase conjugate followed by the substrate, diaminobenzidine (DAB). […] Cell were counted with 20× magnification (4 random fields/well), 4 wells per group. Ratio between apoptotic cells and total cells was calculated. […]

GFRα1 = target: T1, GFRα1 (Homo sapiens, UniProt P56159); assay: Pull-down assay and ELISA with GFRα1; type: binding; conditions: pull-down with biotinylated DNSP-11; supported by ELISA
T1 sequence (P56159 25-429): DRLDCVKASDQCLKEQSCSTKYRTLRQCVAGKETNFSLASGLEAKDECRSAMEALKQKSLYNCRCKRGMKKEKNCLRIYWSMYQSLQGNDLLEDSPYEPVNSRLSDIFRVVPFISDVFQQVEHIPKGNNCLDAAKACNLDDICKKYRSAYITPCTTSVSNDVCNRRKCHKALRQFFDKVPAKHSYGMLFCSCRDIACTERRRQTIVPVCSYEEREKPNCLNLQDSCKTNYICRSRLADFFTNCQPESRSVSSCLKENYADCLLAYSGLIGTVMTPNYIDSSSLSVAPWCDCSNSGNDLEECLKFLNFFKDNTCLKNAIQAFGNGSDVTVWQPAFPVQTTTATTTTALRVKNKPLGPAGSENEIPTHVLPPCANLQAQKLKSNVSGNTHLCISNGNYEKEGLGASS
Description: Specifically, a solution of 25 μL GFRα1 (1 mg/mL) was incubated with 50 μL of Dynabeads® (Invitrogen) in wash and bind buffer (0.1 M sodium phosphate, pH 8.2, 0.01% ^Tween® 20) for 10 minutes at room temperature. The beads were then washed three times in 100 μl, of wash and bind buffer. 2 μg of GDNF was added and incubated for 1 hour at 4° C. 25 μL GFRα1 (1 mg/mL) was incubated with 40 μg of biotinylated DNSP-11 (bDNSP-11) for 1 hour at 4° C. They were then added to 50 μL of hydrophilic streptavidin magnetic beads (New England Biolabs) and incubated for an hour at 4° C.
Moreover, the absence of interaction between GFRα1 with DNSP-11 is supported by ELISA.

B65 cells = assay: Caspase-3 activity assay, mitochondrial toxins; type: cell-based
Description: as §1
B65 cells were plated on 24-well poly-D-lysine plates in DMEM and 50u/ml penicillin and streptomycin. Cells incubated in either 50 nM, 100 nM, or 250 nM rotenone or 10 μM, […] or 50 μM TaClo for 1 to 12 hours at 37° C. in 5% CO2, following pretreatment (1 to 30 minutes) with or without 10 nM or 100 nM DNSP-11. The cells were then lysed and protein level measured by BCA assay (BioRad). The protein level were normalized for every experiment. The Enz Chek Caspase-3 Kit (Invitrogen) was used to detect caspase-3 activity and fluorescence was read on fluorescence reader (excitation/emission 496/520 nm). Data are expressed as % of control and were repeated a minimum of three times.

MN9D cells [2] = assay: Oxygen consumption rate (Seahorse XF-24); type: cell-based
Description: Real-time measurement of oxygen consumption rate (OCR) of intact DNSP-11-treated MN9D cells, in the presence and absence of Complex I toxins, rotenone 1-5 ηM or TaClo 100-150 μM, were performed utilizing the Seahorse XF-24 extracellular flux analyzer. This instrument allows the simultaneous measurement of the mitochondrial bioenergetics from […] cell culture samples, without the mitochondrial isolation (and thus higher quantities of sample) needed for the standard (lower throughput) Clark-type electrode chamber. Details regarding the methods used for the Seahorse analysis were recently described in detail (Sauerbeck et al., Journal of Neuroscience Methods 198:36-43 (2011) incorporated herein by reference).
Briefly, following sensor preparation, calibration, and dose optimization, the basal and maximal oxygen consumption rates (OCR) were measured in intact MN9D neuronal cells in the absence and presence of 1 μM DNSP-11. […] Following electron transport chain uncoupling by 100 nM FCCP to measure the maximal OCR, treatment of MN9D neurons with DNSP-11 had nearly a 60% increase (p<0.001) versus control.

Q: With “PPEAPAEDRSL-NH2 [DNSP-11, PPEAPAEDRSL-amide]” as the substance, how does the “TUNEL staining, protection from toxins” value (MN9D cells [1]; MPP+, rotenone or TaClo 1 to 12 hours, pretreatment with 10 nM or 100 nM DNSP-11) read?
A: The value was “significant protection”.

Q: What about the “TUNEL staining, DNSP-11 alone” value (MN9D cells [1]; no toxin) of the same substance?
A: Its value is “no significant effect”.

Q: And the “interaction with GFRα1” value (GFRα1)?
A: Its value is “do not interact”.

Q: What about the “caspase-3 activity, DNSP-11 alone” value (B65 cells; no toxin) of the same substance?
A: Its value is “no significant effect”.

Q: What about the “caspase-3 activity, protection from toxins” value (B65 cells; rotenone or TaClo 1 to 12 hours, pretreatment with 10 nM or 100 nM DNSP-11) of the same substance?
A: Its value is “significant protection”.

Q: And the “basal and maximal OCRs, protection from rotenone” value (MN9D cells [2]; 1 nM, 2.5 nM and 5 nM rotenone)?
A: Its value is “protection”.

Q: What about the “basal OCR vs control treatment” value (MN9D cells [2]; 1 μM DNSP-11) of the same substance?
A: The value was “no significant effect”.

Q: What about the “reserve respiratory capacity (ratio maximal/basal OCR)” value (MN9D cells [2]; 1 μM DNSP-11) of the same substance?
A: The value was “significantly increases”.

Q: What about the “maximal OCR, increase versus control” value (MN9D cells [2]; 1 μM DNSP-11, uncoupling by 100 nM FCCP, p<0.001) of the same substance?
A: Its value is roughly 60%.

Q: What about the “basal and maximal OCRs, protection from TaClo” value (MN9D cells [2]; 100 μM and 150 μM TaClo) of the same substance?
A: Its value is “protection”.
